Literature values as cited in patent US20260240156A1, “OIL-BASED DISPERSION COMPOSITIONS OF SOLID PARTICULATE HYGROSCOPIC OR WATER-SOLUBLE PESTICIDES” (priority 2023, published 2026).

Conditions: in water compared to non-aqueous systems

For `CC1=NNC(=O)N(/N=C/c2cccnc2)C1` [Pymetrozine, 6-methyl-4-[(E)-(pyridin-3ylmethylene)amino]-4,5-dihydro-2H-[1,2,4]-triazin-3-one], the Photodegradation is listed as “significantly faster in water compared to non-aqueous systems”.
